The subject of data set [1] is CFU-GM (Colony Forming Unit-Granulocyte Macrophage) progenitors from CD34+ cells. In words: Colony assay in methylcellulose, CFU-GM. The following applies: CD34+ cells seeded in methylcellulose in the presence of compound; compared to untreated control. Format: cell-based, human. How it is done:
CD34^+cells were obtained from leukapheresis samples after mobilization of donors after informed consent in agreement with our Institute Ethic Committee (Assistance Publique des Hôpitaux de Paris) and in accordance with the Declaration of Helsinki. CD34^+cells were isolated by a positive selection using an immunomagnetic cell sorting system (AutoMacs; Miltenyi Biotec, Bergisch Gladbach, Germany). 500 to 1000 normal CD34^+cells were plated either in 1% methylcellulose assay (StemCells technologies, Vancouver, Canada) to quantify erythroid (BFU-E) and granulo-monocytic (CFU-GM) progenitors or in serum-free fibrin clot assay for quantification of MK progenitors (CFU-MK) in the absence or presence of various concentration of SAR405838 or MI-219. Cultures in methylcellulose were stimulated by addition of human recombinant growth factors: G-CSF (20 ng/mL), IL-3 (10 ng/mL) SCF (25 ng/mL, Biovitrum AB, Stockholm, Sweden), IL-6 (10 ng/mL), FLT3 (10 ng/mL) and human EPO (1 U/mL). Cultures in fibrin clot were stimulated with 10 ng/mL TPO (Kirin Brewery, Tokyo, Japan) and 25 ng/mL SCF. […] CFU-MK colonies were enumerated at day 12 after labeling by an indirect immuno-alkaline phosphatase staining technique using an anti-CD41a monoclonal antibody (MoAb; Becton Dickinson, le Pont de Claix, France; clone HIP8), as previously described.

Data set [2] has as its system CFU-MK (Colony Forming Unit-Megakaryocyte) progenitors from CD34+ cells. The data set is described as follows: Colony assay in fibrin clot, CFU-MK. The format is cell-based, human. The following applies: CD34+ cells seeded in fibrin clot in the presence of compound; compared to untreated control. The procedure:
CD34^+cells were obtained from leukapheresis samples after mobilization of donors after informed consent in agreement with our Institute Ethic Committee (Assistance Publique des Hôpitaux de Paris) and in accordance with the Declaration of Helsinki. CD34^+cells were isolated by a positive selection using an immunomagnetic cell sorting system (AutoMacs; Miltenyi Biotec, Bergisch Gladbach, Germany). 500 to 1000 normal CD34^+cells were plated either in 1% methylcellulose assay (StemCells technologies, Vancouver, Canada) to quantify erythroid (BFU-E) and granulo-monocytic (CFU-GM) progenitors or in serum-free fibrin clot assay for quantification of MK progenitors (CFU-MK) in the absence or presence of various concentration of SAR405838 or MI-219. Cultures in methylcellulose were stimulated by addition of human recombinant growth factors: G-CSF (20 ng/mL), IL-3 (10 ng/mL) SCF (25 ng/mL, Biovitrum AB, Stockholm, Sweden), IL-6 (10 ng/mL), FLT3 (10 ng/mL) and human EPO (1 U/mL). Cultures in fibrin clot were stimulated with 10 ng/mL TPO (Kirin Brewery, Tokyo, Japan) and 25 ng/mL SCF. BFU-E and CFU-GM colonies were enumerated at day 14 of culture. […]

Data set [3] has as its system BFU-E (Burst Forming Unit-Erythroid) progenitors from CD34+ cells. The data set is described as follows: Colony assay in methylcellulose, BFU-E. Format: cell-based, human. The following applies: CD34+ cells seeded in methylcellulose in the presence of compound; compared to untreated control. The procedure: CD34^+cells were obtained from leukapheresis samples after mobilization of donors after informed consent in agreement with our Institute Ethic Committee (Assistance Publique des Hôpitaux de Paris) and in accordance with the Declaration of Helsinki. CD34^+cells were isolated by a positive selection using an immunomagnetic cell sorting system (AutoMacs; Miltenyi Biotec, Bergisch Gladbach, Germany). 500 to 1000 normal CD34^+cells were plated either in 1% methylcellulose assay (StemCells technologies, Vancouver, Canada) to quantify erythroid (BFU-E) and granulo-monocytic (CFU-GM) progenitors or in serum-free fibrin clot assay for quantification of MK progenitors (CFU-MK) in the absence or presence of various concentration of SAR405838 or MI-219. Cultures in methylcellulose were stimulated by addition of human recombinant growth factors: G-CSF (20 ng/mL), IL-3 (10 ng/mL) SCF (25 ng/mL, Biovitrum AB, Stockholm, Sweden), IL-6 (10 ng/mL), FLT3 (10 ng/mL) and human EPO (1 U/mL). Cultures in fibrin clot were stimulated with 10 ng/mL TPO (Kirin Brewery, Tokyo, Japan) and 25 ng/mL SCF. BFU-E and CFU-GM colonies were enumerated at day 14 of culture. CFU-MK colonies were enumerated at day 12 after labeling by an indirect immuno-alkaline phosphatase staining technique using an anti-CD41a monoclonal antibody (MoAb; Becton Dickinson, le Pont de Claix, France; clone HIP8), as previously described.

The subject of data set [4] is Day 6 megakaryoblasts (ploidization). The data set is described as follows: MK ploidy by flow cytometry (CD41/CD42/vital Hoechst staining). The format is cell-based, human. The conditions noted are these: day 6 megakaryoblasts treated 72 hours, analysed day 9; SAR405838 at 1 μM; untreated control 4.4 N. The procedure:
First, we investigated if MDM2 inhibitors affect MK ploidization. SAR405838 induced a significant reduction in the mean ploidy (3.0 N at the dose of 1 μM versus 4.4 N for untreated control or for MI-219 treatment) (Supplementary Figure S1). page 1: P53 activation inhibits all types of hematopoietic progenitors and all stages of megakaryopoiesis SUPPLEMENTARY FIGURE Supplementary Figure S1: Effect of SAR405838 on polyploidization. Day 6 megakaryoblasts were treated for 72 hours with various doses of MI-219 or SAR405838. At day 9, ploidy was analyzed by flow cytometry using a CD41/CD42/vital Hoechst staining. N represents the mean ploidy. As shown, SAR405838 induced a significant reduction in the mean ploidy (3.0N at the dose of 1μM versus 4.4N for control or for MI-219 treatment). The Figure illustrates a representative experiment in triplicate. Two other experiments in triplicate gave similar results. […]
In general terms: Flow cytometry measures light scatter and fluorescence of single cells or particles in a stream.

Details of data set [5]: method as in PMID 23084521, PMID 24309210. The conditions noted are these: clinical and preclinical data in rats and monkeys; cited from earlier work.
The test system of data set [6] is p53 pathway in megakaryocytes (MKs). In words: p53 pathway proteins and transcripts in MKs (western-blot, qRT-PCR). Format: cell-based, human. The conditions noted are these: day 7-MKs (legend: day 10-MK), 5 μM for 24 or 48 hours. How it is done:
We also explored the effects of p53 stabilization at a later stage of megakaryocytic differentiation. […] Day 7-MKs were treated with 5 μM Nutlin 3a for 24 or 48 hours, which led to an increase in p53, p21, BAX, BCL2 and BCL-XL levels, confirming a functional p53 activity (Figure 6A). […] Similar results were found with day 6-megakaryoblasts treated with two doses of SAR405838 for 72 hours (Figure 6D/6E) without any major effect on the percentage of CD41^+ cells (Figure 6F). […] As shown in Figure 6D/6E, at the dose of 0.5 μM the SAR405838 induced a 50% decreased in the number of viable cells while the apoptotic cells reached 50% of the total cells. We checked if the effect of SAR405838 on MKs could be reverted by the addition of high TPO doses. CD34^+ progenitors were cultured in serum-free medium supplemented with SCF and low dose of TPO (1 ng/mL) for 6 days. Day 6-megakaryoblasts were then treated with 1.5 μM of SAR405838 for 48 hours and various doses of TPO.
In parallel, the expression of P53, BAK, BCL2L1, NOXA, PUMA, BAX, P21 and P53 were quantified by qRT-PCR related to HPRT. C. […] (n=3). […]
PCRs were carried out in the ABI Prism GeneAmp 5700 (Perkin-Elmer) using the Power SYBR-Green PCR Master Mix (ABI) containing the specific primers. The expression levels of all genes were calculated relatively to HPRT or to PPIA housekeeping gene.
Proteins were quantified by Image J software.

With `CC(C)(C)C[C@H]1N[C@@H](C(=O)NCC[C@H](O)CO)[C@H](c2cccc(Cl)c2)[C@@]12C(=O)Nc1cc(Cl)c(F)cc12.Cl` [MI-219], the “dose inducing a 50% reduction of CFU-GM numbers” value in data set [1] is recorded as “significant less potent activity compared to SAR405838”. The “dose inducing a 50% reduction of CFU-MK numbers” value in data set [2] is listed as “significant less potent activity compared to SAR405838”. The “dose inducing a 50% reduction of BFU-E numbers” value in data set [3] is “significant less potent activity compared to SAR405838”. This compound yielded a mean ploidy in data set [4] of 4.4 N. For the compound `CCOc1cc(C(C)(C)C)ccc1C1=N[C@@](C)(c2ccc(Cl)cc2)[C@@](C)(c2ccc(Cl)cc2)N1C(=O)N1CCN(CCCS(C)(=O)=O)CC1` [RG7112], in data set [5], the hematological adverse effect entry is listed as “major thrombocytopenia”. Turning to `COc1ccc(C2=N[C@@H](c3ccc(Cl)cc3)[C@@H](c3ccc(Cl)cc3)N2C(=O)N2CCNC(=O)C2)c(OC(C)C)c1` [Nutlin], the hematological adverse effect entry in data set [5] is “major thrombocytopenia”.

`COc1ccc(C2=N[C@@H](c3ccc(Cl)cc3)[C@@H](c3ccc(Cl)cc3)N2C(=O)N2CCNC(=O)C2)c(OC(C)C)c1` [Nutlin 3a]: in data set [6], the “p53, p21, BAX, BCL2 and BCL-XL levels (western-blot)” value is on record as “increase”.

Source of the values: PMC5077990, “P53 activation inhibits all types of hematopoietic progenitors and all stages of megakaryopoiesis” (Oncotarget, 2016).
